Experimental data from patent US20170190671A1, “BIS(ARYL)CATECHOL DERIVATIVES AS HERBICIDES” (E I DU PONT DE NEMOURS AND COMPANY, priority 2014, published 2017).

Tests used:
[1] = test system: giant foxtail (Setaria faberii); assay: Test A preemergence; type: in vivo; details: Setaria faberi, pre-emergence, 240 h, 0 to 100 scale (0 no effect, 100 complete control), read-out: Foxtail, Giant plant response rating; for pest or weed control at 31 g/ha: 31 g ai/ha; for pest or weed control at 125 g/ha: 125 g ai/ha
How it was run: (§1)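 Pre- and postemergence greenhouse screen. Soil: loam + sand. Spray carrier: solvent mixture, non-phytotoxic, with surfactant. Post timing at 1–2 leaves, height 2–10 cm. Readout: visual injury on a 0–100 scale roughly 10 days after application, untreated plants as reference.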

kochia (Kochia scoparia) [2] = assay: Test A preemergence; type: in vivo; details: Bassia scoparia, pre-emergence, 240 h, 0 to 100 scale (0 no effect, 100 complete control), read-out: Kochia plant response rating; for pest or weed control at 31 g/ha: 31 g ai/ha; for pest or weed control at 125 g/ha: 125 g ai/ha
How it was run: as §1

[3] = test system: Italian ryegrass (Lolium multiflorum); assay: Test A preemergence; type: in vivo; details: Lolium multiflorum, pre-emergence, 240 h, 0 to 100 scale (0 no effect, 100 complete control), read-out: Ryegrass, Italian plant response rating; for pest or weed control at 31 g/ha: 31 g ai/ha; for pest or weed control at 125 g/ha: 125 g ai/ha
How it was run: as §1

[4] = test system: pigweed (Amaranthus retroflexus); assay: Test A preemergence; type: in vivo; details: Amaranthus retroflexus, pre-emergence, 240 h, 0 to 100 scale (0 no effect, 100 complete control), read-out: Pigweed plant response rating; for pest or weed control at 31 g/ha: 31 g ai/ha; for pest or weed control at 125 g/ha: 125 g ai/ha
How it was run: as §1

[5] = test system: ragweed (common ragweed, Ambrosia elatior); assay: Test A preemergence; type: in vivo; details: Ambrosia artemisiifolia, pre-emergence, 240 h, 0 to 100 scale (0 no effect, 100 complete control), read-out: Ragweed plant response rating; for pest or weed control at 31 g/ha: 31 g ai/ha; for pest or weed control at 125 g/ha: 125 g ai/ha
How it was run: as §1

[6] = test system: barnyardgrass (Echinochloa crus-galli); assay: Test A preemergence; type: in vivo; details: Echinochloa crus-galli, pre-emergence, 240 h, 0 to 100 scale (0 no effect, 100 complete control), read-out: Barnyardgrass plant response rating; for pest or weed control at 31 g/ha: 31 g ai/ha; for pest or weed control at 125 g/ha: 125 g ai/ha
How it was run: as §1

rice (Oryza sativa) = assay: Test B flooded paddy; type: in vivo; details: Oryza sativa, 336 h; 250 g ai/ha, Flood, 13 to 15 days, scale 0 (no effect) to 100 (complete control); read-out: Plant response rating, Rice
How it was run: (§2)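 Visual injury ratings against untreated controls, taken 13 to 15 days after compound was added to paddy water standing 3 cm above the soil.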

[7] = test system: sedge, umbrella (small-flower umbrella sedge, Cyperus difformis); assay: Test B flooded paddy; type: in vivo; details: Cyperus difformis, 336 h; 250 g ai/ha, Flood, 13 to 15 days, scale 0 (no effect) to 100 (complete control); read-out: Plant response rating, Sedge, Umbrella
How it was run: as §2

[8] = test system: barnyardgrass (Echinochloa crus-galli); assay: Test B flooded paddy; type: in vivo; details: Echinochloa crus-galli, 336 h; 250 g ai/ha, Flood, 13 to 15 days, scale 0 (no effect) to 100 (complete control); read-out: Plant response rating, Barnyardgrass
How it was run: as §2

[9] = test system: ducksalad (Heteranthera limosa); assay: Test B flooded paddy; type: in vivo; details: Heteranthera limosa, 336 h; 250 g ai/ha, Flood, 13 to 15 days, scale 0 (no effect) to 100 (complete control); read-out: Plant response rating, Ducksalad
How it was run: as §2

[10] = test system: giant foxtail (Setaria faberii); assay: Test A postemergence; type: in vivo; details: Setaria faberi, post-emergence, 240 h, 0 to 100 scale, read-out: Plant response rating, Foxtail, Giant; for pest or weed control at 31 g/ha: 31 g ai/ha; for pest or weed control at 125 g/ha: 125 g ai/ha
How it was run: as §1

kochia (Kochia scoparia) [11] = assay: Test A postemergence; type: in vivo; details: Bassia scoparia, post-emergence, 240 h, 0 to 100 scale, read-out: Plant response rating, Kochia; for pest or weed control at 31 g/ha: 31 g ai/ha; for pest or weed control at 125 g/ha: 125 g ai/ha
How it was run: as §1

[12] = test system: Italian ryegrass (Lolium multiflorum); assay: Test A postemergence; type: in vivo; details: Lolium multiflorum, post-emergence, 240 h, 0 to 100 scale, read-out: Plant response rating, Ryegrass, Italian; for pest or weed control at 31 g/ha: 31 g ai/ha; for pest or weed control at 125 g/ha: 125 g ai/ha
How it was run: as §1

[13] = test system: galium (catchweed bedstraw, Galium aparine); assay: Test A postemergence; type: in vivo; details: Galium, post-emergence, 240 h, 0 to 100 scale, read-out: Plant response rating, Galium; for pest or weed control at 31 g/ha: 31 g ai/ha; for pest or weed control at 125 g/ha: 125 g ai/ha
How it was run: as §1

[14] = test system: wheat (Triticum aestivum); assay: Test A postemergence; type: in vivo; details: Triticum aestivum, post-emergence, 240 h, 0 to 100 scale, read-out: Plant response rating, Wheat; for plant injury at 31 g/ha: 31 g ai/ha; for plant injury at 125 g/ha: 125 g ai/ha
How it was run: as §1

[15] = test system: pigweed (Amaranthus retroflexus); assay: Test A postemergence; type: in vivo; details: Amaranthus retroflexus, post-emergence, 240 h, 0 to 100 scale, read-out: Plant response rating, Pigweed; for pest or weed control at 31 g/ha: 31 g ai/ha; for pest or weed control at 125 g/ha: 125 g ai/ha
How it was run: as §1

[16] = test system: blackgrass (Alopecurus myosuroides); assay: Test A postemergence; type: in vivo; details: Alopecurus myosuroides, post-emergence, 240 h, 0 to 100 scale, read-out: Plant response rating, Blackgrass; for pest or weed control at 31 g/ha: 31 g ai/ha; for pest or weed control at 125 g/ha: 125 g ai/ha
How it was run: as §1

[17] = test system: ragweed (common ragweed, Ambrosia elatior); assay: Test A postemergence; type: in vivo; details: Ambrosia artemisiifolia, post-emergence, 240 h, 0 to 100 scale, read-out: Plant response rating, Ragweed; for pest or weed control at 31 g/ha: 31 g ai/ha; for pest or weed control at 125 g/ha: 125 g ai/ha
How it was run: as §1

corn (Zea mays) = assay: Test A postemergence; type: in vivo; details: Zea mays, post-emergence, 240 h, 0 to 100 scale; for Corn plant response rating (crop injury, 0 = no effect, 100 = complete kill) at 31 g/ha: 31 g ai/ha; for Corn plant response rating (crop injury, 0 = no effect, 100 = complete kill) at 125 g/ha: 125 g ai/ha
How it was run: as §1

[18] = test system: barnyardgrass (Echinochloa crus-galli); assay: Test A postemergence; type: in vivo; details: Echinochloa crus-galli, post-emergence, 240 h, 0 to 100 scale, read-out: Plant response rating, Barnyardgrass; for pest or weed control at 31 g/ha: 31 g ai/ha; for pest or weed control at 125 g/ha: 125 g ai/ha
How it was run: as §1

| melting point | Compound | pest or weed control at 31 g/ha [1] | pest or weed control at 125 g/ha [1] | pest or weed control at 31 g/ha (kochia (Kochia scoparia) [2]) | pest or weed control at 125 g/ha (kochia (Kochia scoparia) [2]) | pest or weed control at 31 g/ha [3] | pest or weed control at 125 g/ha [3] | pest or weed control at 31 g/ha [4] | pest or weed control at 125 g/ha [4] | pest or weed control at 31 g/ha [5] | pest or weed control at 125 g/ha [5] | pest or weed control at 31 g/ha [6] | pest or weed control at 125 g/ha [6] | plant injury at 250 g/ha (rice (Oryza sativa)) | pest or weed control at 250 g/ha [7] | pest or weed control at 250 g/ha [8] | pest or weed control at 250 g/ha [9] | pest or weed control at 31 g/ha [10] | pest or weed control at 125 g/ha [10] | pest or weed control at 31 g/ha (kochia (Kochia scoparia) [11]) | further results |
| --- | --- | --- | --- | --- | --- | --- | --- | --- | --- | --- | --- | --- | --- | --- | --- | --- | --- | --- | --- | --- | --- |
| 120 to 123 °C | N#Cc1cccc(Oc2ncc(Cl)cn2)c1Oc1ccccc1Cl [Compound 40] | 0% | 0% | 0% | 0% | 0% | 0% | 0% | 0% | 0% | 0% | 0% | 0% | 0% | 0% | 0% | 0% | 0% | 0% | 0% | pest or weed control at 125 g/ha (kochia (Kochia scoparia) [11]): 0%; pest or weed control at 31 g/ha [12]: 0%; pest or weed control at 125 g/ha [12]: 0%; pest or weed control at 31 g/ha [13]: 0%; pest or weed control at 125 g/ha [13]: 10%; plant injury at 31 g/ha [14]: 0%; plant injury at 125 g/ha [14]: 0%; pest or weed control at 31 g/ha [15]: 0%; pest or weed control at 125 g/ha [15]: 30%; pest or weed control at 31 g/ha [16]: 0%; pest or weed control at 125 g/ha [16]: 0%; pest or weed control at 31 g/ha [17]: 0%; pest or weed control at 125 g/ha [17]: 0%; Corn plant response rating (crop injury, 0 = no effect, 100 = complete kill) at 31 g/ha (corn (Zea mays)): 0%; Corn plant response rating (crop injury, 0 = no effect, 100 = complete kill) at 125 g/ha (corn (Zea mays)): 0%; pest or weed control at 31 g/ha [18]: 0%; pest or weed control at 125 g/ha [18]: 0% |
| 122 to 126 °C | N#Cc1cccc(Oc2ncc(Cl)cn2)c1Oc1cccc(Cl)c1 [Compound 37] | 0% | 0% | 0% | 0% | 0% | 0% | 0% | 0% | 0% | 0% | 0% | 0% | 0% | 0% | 0% | 0% | 0% | 0% | 0% | pest or weed control at 125 g/ha (kochia (Kochia scoparia) [11]): 0%; pest or weed control at 31 g/ha [12]: 0%; pest or weed control at 125 g/ha [12]: 0%; pest or weed control at 31 g/ha [13]: 0%; pest or weed control at 125 g/ha [13]: 0%; plant injury at 31 g/ha [14]: 0%; plant injury at 125 g/ha [14]: 0%; pest or weed control at 31 g/ha [15]: 0%; pest or weed control at 125 g/ha [15]: 0%; pest or weed control at 31 g/ha [16]: 0%; pest or weed control at 125 g/ha [16]: 0%; pest or weed control at 31 g/ha [17]: 0%; pest or weed control at 125 g/ha [17]: 0%; Corn plant response rating (crop injury, 0 = no effect, 100 = complete kill) at 31 g/ha (corn (Zea mays)): 0%; Corn plant response rating (crop injury, 0 = no effect, 100 = complete kill) at 125 g/ha (corn (Zea mays)): 0%; pest or weed control at 31 g/ha [18]: 0%; pest or weed control at 125 g/ha [18]: 0% |
